Measured values reported in EP2678315B1, “(Pyridin-4-yl)benzylamides as allosteric modulators of alpha 7 nAChR” (Janssen Pharmaceutica, N.V., priority 2011, dated 2012).
Several values for one entry are separate records, joined by “and”; a condition that tells them apart may be missing. Identical values can stand only once. Like-named read-outs stand apart in the source and are kept apart here.

Molecular target: T1, human alpha 7-wt nAChR (Homo sapiens, UniProt P36544)
T1 construct: expressed in transfected cells
T1 sequence (P36544 23-502): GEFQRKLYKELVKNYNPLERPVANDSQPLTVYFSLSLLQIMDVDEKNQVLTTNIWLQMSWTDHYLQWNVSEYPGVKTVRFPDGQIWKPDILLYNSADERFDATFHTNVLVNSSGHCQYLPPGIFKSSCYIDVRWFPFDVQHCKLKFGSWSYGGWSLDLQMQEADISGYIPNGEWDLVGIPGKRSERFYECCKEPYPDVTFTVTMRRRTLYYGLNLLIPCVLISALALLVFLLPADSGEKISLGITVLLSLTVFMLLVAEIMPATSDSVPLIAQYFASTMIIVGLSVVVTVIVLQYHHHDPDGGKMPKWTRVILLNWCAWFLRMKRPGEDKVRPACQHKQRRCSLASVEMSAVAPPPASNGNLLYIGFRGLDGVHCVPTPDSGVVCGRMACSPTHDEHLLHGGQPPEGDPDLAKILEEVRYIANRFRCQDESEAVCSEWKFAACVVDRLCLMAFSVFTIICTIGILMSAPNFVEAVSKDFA
Assay: Ca2+ flux imaging (FDSS) (protocol B)
Assay type: cell-based
Settings: for EC50: read-out: pEC50 (converted); for Emax: read-out: % Efficacy
Experimental: Example D.1 : Ca^2+ flux imaging (FDSS) (protocol B)
• a) Assay buffer Hanks buffered saline solution (HBSS, Invitrogen, Belgium), supplemented with 10 mM HEPES (Invitrogen, Belgium), CaCl2 to a final concentration of 5 mM, 0.1 % Bovine serum albumin (Sigma-Aldrich NV, Belgium). • b) Calcium-sensitive dye - Fluo-4AM Fluo-4AM (Molecular Probes, USA) was dissolved in DMSO containing 10% Pluronic acid (Molecular Probes, USA) to give a stock solution which was diluted in assay buffer supplemented with 5 mM probenicid (Sigma, Aldrich NV, Belgium) to give a final concentration of 2 µM • c) 384-well plates Black-sided, transparent bottomed 384 well plates coated with poly-D-lysine, PDL pre-coated (Coming, Incorporated, USA) • d) Calcium flux measurement A Functional drug screening system (FDSS, Hamamatsu) was used to measure intracellular free-calcium flux signals.
Monolayers of human alpha 7-wt nAChR-expressing cells were grown in black-sided, transparent bottomed 384 well plates coated with PDL for 24 hours prior to loading with a fluorescent calcium indicator, fluo-4AM for up to 120 minutes.
PAM activity was detected in real time by applying the compounds to be tested to the loaded cells along with an alpha 7 nicotinic receptor agonist during constant monitoring of cellular fluorescence in a FDSS. Compounds giving peak fluorescent responses greater than the response due to agonist alone, were consideted to be alpha 7 nAChR PAMs. The alpha 7 nicotinic receptor agonist was choline, applied at a sub-maximal concentration of 100 µM. In a further setting of the present invention the compounds were applied prior to the alpha 7 nicotinic receptor agonist, in a particular 10 minutes prior to the agonist.
A control response to choline was calculated on each plate from the difference in peak in fluorescence in wells receiving either choline or assay buffer alone. Compounds of the present invention were tested at a concentration range from 0.01 µM to 30 µM. Compounds were considered to have an interesting activity when they potentiated the choline signal at least with 200 % when tested at a concentration of 30 µM (the efficacy of 100 µM choline was defined as 100% in the absence of a PAM). An EC50 (or pEC50) was determined as a concentration relating to half the maximal effect, when a clear sigmoidal curve with top plateau was obtained.

For Cc1cc(-c2ccc(N3CCO[C@H](C(F)(F)F)C3)c(F)c2CNC(=O)C(C)C)cc(C)n1 [Compound 65], the EC50 (Ca2+ assay as described in D.1) was 575 nM.
Work on Cc1cc(-c2ccc(N3CCO[C@H](C(F)(F)F)C3)c(F)c2CNC(=O)c2conc2C)cc(C)n1 [Compound 66] yielded an EC50 (Ca2+ assay as described in D.1) of 398 nM and an Emax of 649%.
Compound Cc1cc(-c2ccc(N3CCO[C@H](C(F)(F)F)C3)c(F)c2CNC(=O)c2cc(C)on2)cc(C)n1 [Compound 67] has an EC50 (Ca2+ assay as described in D.1) of 347 nM.
Cc1cc(-c2ccc(N3CCO[C@H](C(F)(F)F)C3)c(F)c2CNC(=O)CC(C)C)cc(C)n1 [Compound 68] was tested, and the EC50 (Ca2+ assay as described in D.1) was 132 nM.
Cc1cc(-c2ccc(N3CCO[C@H](C(F)(F)F)C3)c(F)c2CNC(=O)C2CC2)cc(C)n1 [Compound 69] was tested, and the EC50 (Ca2+ assay as described in D.1) was 776 nM.
With Cc1cc(-c2ccc(N3CCO[C@H](C(F)(F)F)C3)c(F)c2CNC(=O)CC2CCC2)cc(C)n1 [Compound 70] the EC50 (Ca2+ assay as described in D.1) was 115 nM.
For Cc1cc(-c2ccc(N3CCO[C@@H](C(F)(F)F)C3)c(F)c2CNC(=O)CC2CCC2)cc(C)n1 [Compound 71], the EC50 (Ca2+ assay as described in D.1) was 32.4 nM.
For Cc1cc(-c2ccc(N3CCO[C@@H](C(F)(F)F)C3)c(F)c2CNC(=O)CC(C)C)cc(C)n1 [Compound 72], the EC50 (Ca2+ assay as described in D.1) was 14.8 nM.
Cc1cc(-c2ccc(N3CCO[C@@H](C(F)(F)F)C3)c(F)c2CNC(=O)C2CC2)cc(C)n1 [Compound 73] was tested, and the EC50 (Ca2+ assay as described in D.1) was 741 nM and the Emax was 878%.
Compound Cc1cc(-c2c(F)cc(N3C[C@@H](C)O[C@@H](C)C3)cc2CNC(=O)CC2CC2)cc(C)n1 [Compound 74] has an EC50 (Ca2+ assay as described in D.1) of 11.2 nM and an Emax of 508%.
With Cc1cc(-c2c(F)cc(N3C[C@@H](C)O[C@@H](C)C3)cc2CNC(=O)c2cc(C)on2)cc(C)n1 [Compound 75] the EC50 (Ca2+ assay as described in D.1) was 209 nM.
With Cc1cc(-c2c(F)cc(N3C[C@@H](C)O[C@@H](C)C3)cc2CNC(=O)c2conc2C)cc(C)n1 [Compound 76] the EC50 (Ca2+ assay as described in D.1) was roughly 38 nM and the Emax was 572%.
In the case of Cc1cc(-c2c(F)cc(N3C[C@@H](C)O[C@@H](C)C3)cc2CNC(=O)CC(F)(F)F)cc(C)n1 [Compound 77], the Emax (Ca2+ assay as described in D.1) is reported as 136%.
Cc1cc(-c2c(F)cc(N3C[C@@H](C)O[C@@H](C)C3)cc2CNC(=O)C(C)C)cc(C)n1 [Compound 78] was tested, and the EC50 (Ca2+ assay as described in D.1) was 21.9 nM and the Emax was 707%.
Cc1cc(-c2c(F)cc(N3C[C@@H](C)O[C@@H](C)C3)cc2CNC(=O)C2CC2)cc(C)n1 [Compound 79] gave an EC50 (Ca2+ assay as described in D.1) of 17.4 nM and an Emax of 381%.
With Cc1cc(-c2c(F)cc(N3C[C@@H](C)O[C@@H](C)C3)cc2CNC(=O)CC2CCC2)cc(C)n1 [Compound 80] the EC50 (Ca2+ assay as described in D.1) was 6.17 nM.
For Cc1cc(-c2c(F)cc(N3C[C@@H](C)O[C@@H](C)C3)cc2CNC(=O)CCC(F)(F)F)cc(C)n1 [Compound 81], the EC50 (Ca2+ assay as described in D.1) was 5.37 nM.
Cc1cc(-c2c(F)cc(N3C[C@@H](C)O[C@@H](C)C3)cc2CNC(=O)CC(C)C)cc(C)n1 [Compound 83] gave an EC50 (Ca2+ assay as described in D.1) of 7.08 nM and an Emax of 906%.
Compound Cc1cc(-c2c(F)cc(N3C[C@@H](C)O[C@@H](C)C3)cc2CNC(=O)CC(C)(C)C)cc(C)n1 [Compound 84] has an EC50 (Ca2+ assay as described in D.1) of 9.33 nM and an Emax of 686%.
Cc1cc(-c2c(F)cc(N3C[C@@H](C)O[C@@H](C)C3)cc2CNC(=O)C2CCC2)cc(C)n1 [Compound 85] showed an EC50 (Ca2+ assay as described in D.1) of 6.17 nM and an Emax of 954%.
Cc1cc(-c2c(F)cc(N3C[C@@H](C)O[C@@H](C)C3)cc2CNC(=O)CC2CC2)ccn1 [Compound 87] showed an EC50 (Ca2+ assay as described in D.1) of 79.4 nM.
Compound Cc1cc(-c2c(F)cc(N3C[C@@H](C)O[C@@H](C)C3)cc2CNC(=O)c2cc(C)on2)ccn1 [Compound 90] has an EC50 (Ca2+ assay as described in D.1) of 525 nM.
With Cc1cc(-c2c(F)cc(N3C[C@@H](C)O[C@@H](C)C3)cc2CNC(=O)CC(C)C)ccn1 [Compound 92] the EC50 (Ca2+ assay as described in D.1) was 12.6 nM.
With Cc1cc(-c2c(F)cc(N3CCCC(C(F)(F)F)C3)cc2CNC(=O)C(C)C2CC2)cc(C)n1 (stereo not shown) [Compound 93] the EC50 (Ca2+ assay as described in D.1) was 36.3 nM and the Emax was 736%.
In the case of Cc1cc(-c2c(F)cc(N3CCCC(C(F)(F)F)C3)cc2CNC(=O)c2cc(C)on2)cc(C)n1 (stereo not shown) [Compound 94], the EC50 (Ca2+ assay as described in D.1) is reported as 195 nM and the Emax is reported as 428%.
With Cc1cc(-c2c(F)cc(N3CCCC(C(F)(F)F)C3)cc2CNC(=O)CC2CC2)cc(C)n1 (stereo not shown) [Compound 95] the EC50 (Ca2+ assay as described in D.1) was 27.5 nM and the Emax was 427%.
Compound Cc1cc(-c2c(F)cc(N3CCCC(C(F)(F)F)C3)cc2CNC(=O)C(C)C)cc(C)n1 (stereo not shown) [Compound 96] has an Emax (Ca2+ assay as described in D.1) of 148%.
For Cc1cc(-c2c(F)cc(N3CCCC(C(F)(F)F)C3)cc2CNC(=O)C2CC2)cc(C)n1 (stereo not shown) [Compound 97], the EC50 (Ca2+ assay as described in D.1) was 19.5 nM and the Emax was 330%.
In the case of Cc1cc(-c2c(F)cc(N3CCCC(C(F)(F)F)C3)cc2CNC(=O)c2conc2C)cc(C)n1 (stereo not shown) [Compound 98], the Emax (Ca2+ assay as described in D.1) is reported as 119%.
Cc1cc(-c2c(F)cc(N3CCO[C@@H](C(F)(F)F)C3)cc2CNC(=O)CC(C)C)cc(C)n1 [Compound 101] was tested, and the EC50 (Ca2+ assay as described in D.1) was less than 10 nM.
Cc1cc(-c2c(F)cc(N3C[C@@H](C)O[C@@H](C)C3)c(F)c2CNC(=O)C2CC2)cc(C)n1 [Compound 122] was tested, and the EC50 (Ca2+ assay as described in D.1) was 589 nM.
In the case of Cc1cc(-c2ccc(N3CC4CCC(C3)O4)cc2CNC(=O)C(C)C)cc(C)n1 [Compound 129], the EC50 (Ca2+ assay as described in D.1) is reported as 724 nM and the Emax is reported as 296%.
Cc1cc(-c2ccc(N3CC4CCC(C3)O4)cc2CNC(=O)CC2CC2)cc(C)n1 [Compound 130] was tested, and the Emax (Ca2+ assay as described in D.1) was 95.5%.
Cc1cc(-c2ccc(N3C[C@@H](C)O[C@@H](C)C3)c(CNC(=O)c3ccc(F)cc3C)c2)cc(C)n1 [Compound 135] gave an EC50 (Ca2+ assay as described in D.1) of 14.1 nM.
Cc1nocc1C(=O)NCc1cc(N2CCOCC2)ccc1-c1ccncc1 [Compound 138] gave an Emax (Ca2+ assay as described in D.1) of 386%.
O=C(CC1CC1)NCc1cc(N2CCOCC2)ccc1-c1ccncc1 [Compound 139] showed an EC50 (Ca2+ assay as described in D.1) of 3160 nM and an Emax of 367%.
For Cc1cc(-c2ccc(N3CCOCC3)cc2CNC(=O)C(C)C)ccn1 [Compound 140], the “% Efficacy” value (Ca2+ assay as described in D.1) was 495.5% and 591.6%.
Cc1cc(-c2ccc(N3CCOCC3)cc2CNC(=O)c2cc(C)on2)ccn1 [Compound 142] gave an Emax (Ca2+ assay as described in D.1) of 545%.
For Cc1cc(-c2ccc(N3CCOCC3)cc2CNC(=O)c2conc2C)ccn1 [Compound 143], the EC50 (Ca2+ assay as described in D.1) was 8710 nM and the Emax was 130%.
